Activity calls are given as the source filed them. The calls are words filed in the database; no cut-off is given here.
Legend:
Aurora kinase A [1] = molecular target: T1, Aurora kinase A (Homo sapiens, UniProt O14965); experiment: Inhibition of recombinant human Aurora A (1 to 403 residues) expressed in Escherichia coli using STK-substrate 2-biotin as substrate incubated for 60 mins in presence of 0.48 uM ATP by HTRF assay
T1 sequence (O14965 whole entry): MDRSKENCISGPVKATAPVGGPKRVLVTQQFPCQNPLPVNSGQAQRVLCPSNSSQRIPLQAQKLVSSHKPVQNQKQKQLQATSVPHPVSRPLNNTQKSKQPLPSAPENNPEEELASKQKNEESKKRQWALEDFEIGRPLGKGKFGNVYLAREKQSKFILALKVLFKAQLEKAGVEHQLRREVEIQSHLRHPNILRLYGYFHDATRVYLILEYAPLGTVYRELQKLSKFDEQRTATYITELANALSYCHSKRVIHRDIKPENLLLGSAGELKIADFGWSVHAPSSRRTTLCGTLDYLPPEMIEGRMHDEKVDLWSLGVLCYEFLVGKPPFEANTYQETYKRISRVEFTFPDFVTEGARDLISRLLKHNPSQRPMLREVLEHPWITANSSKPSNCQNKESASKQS

Aurora kinase A [2] = molecular target: T1, Aurora kinase A; experiment: Inhibition of recombinant human Aurora A (1 to 403 residues) expressed in Escherichia coli using STK-substrate 2-biotin as substrate incubated for 40 mins in presence of 7.2uM ATP by HTRF assay
[3] = molecular target: T2, Aurora kinase A (Homo sapiens) (UniProt O14965); experiment: Binding affinity to Aurora A in human MDA-MB-231 cells assessed as thermal stability at 46 to 62 degreeC at 1 uM incubated for 1 hrs by […] analysis; type: cell-based
T2 sequence (whole entry): T1 sequence (O14965 whole entry)

Aurora kinase A [4] = molecular target: T1, Aurora kinase A; experiment: Inhibition of recombinant human Aurora A (1 to 403 residues) expressed in Escherichia coli using STK-substrate 2-biotin as substrate incubated for 15 mins in presence of 0.48 uM ATP by HTRF assay
[5] = Toxicity in BALB/c nude mouse xenografted with human MDA-MB-231 cells assessed as parenchymal injury in lung at 15 mg/kg,ip every 2days for 20 days by Hematoxylin and Eosin staining based microscopy; type: organism-based; conditions: in vivo, 480 h, time 20 day
[6] = Toxicity in BALB/c nude mouse xenografted with human MDA-MB-231 cells assessed as inflammatory cell infiltration in liver at 15 mg/kg,ip every 2days for 20 days by Hematoxylin and Eosin staining based microscopy; type: organism-based; conditions: in vivo, 480 h, time 20 day
MDA-MB-231 [7] = experiment: Induction of apoptosis in human MDA-MB-231 cells assessed as early apoptotic cells at 2.5 uM incubated for 24 hrs by Annexin V-FITC staining based flow cytometry (Rvb= 3.3%); type: functional
MDA-MB-231 [8] = experiment: Antiproliferative activity against human MDA-MB-231 cells assessed as inhibition of cell proliferation incubated for 48 hrs by CCK-8 assay; type: functional, cell-based; conditions: MDA-MB-231, 48 h
Aurora kinase A [9] = molecular target: T1, Aurora kinase A; experiment: Inhibition of recombinant human Aurora A (1 to 403 residues) expressed in Escherichia coli using STK-substrate 2-biotin as substrate incubated for 60 mins in presence of 2.4uM ATP by HTRF assay
[10] = molecular target: T2, Aurora kinase A (Homo sapiens); experiment: Covalent irreversible inhibition of recombinant human Aurora A (1 to 403 residues) expressed in Escherichia coli using STK-substrate 2-biotin as substrate at 0.625 to 40 uM incubated upto 120 mins in presence of ATP by HTRF assay; conditions: dose 0.625-40 µM, TDE = time-dependent effect
MDA-MB-231 [11] = experiment: Induction of apoptosis in human MDA-MB-231 cells assessed as necrotic cells at 2.5 uM incubated for 24 hrs by Annexin V-FITC staining based flow cytometry (Rvb= 1.67%); type: functional
[12] = molecular target: T2, Aurora kinase A (Homo sapiens); experiment: Covalent binding affinity to recombinant human Aurora A (1 to 403 residues) expressed in Escherichia coli assessed as covalent adduct formation at Cys290 residue at 100 uM incubated for 4 hrs by UPLC-MS/MS analysis
[13] = Toxicity in BALB/c nude mouse xenografted with human MDA-MB-231 cells assessed as inflammatory cell infiltration in kidney at 15 mg/kg,ip every 2days for 20 days by Hematoxylin and Eosin staining based microscopy; type: organism-based; conditions: in vivo, 480 h, time 20 day
MDA-MB-231 [14] = experiment: Induction of apoptosis in human MDA-MB-231 cells assessed as necrotic cells at 1.25 uM incubated for 24 hrs by Annexin V-FITC staining based flow cytometry (Rvb= 1.67%); type: functional
[15] = molecular target: Aurora kinase B (Homo sapiens) (UniProt Q96GD4); experiment: Inhibition of Aurora B in human MDA-MB-231 cells assessed as effect on Aurora B phosphorylation at 0.2 to 0.6 uM incubated for 1 hrs by Western blot analysis; type: cell-based; conditions: dose 0.2-0.6 µM
Aurora kinase B (Homo sapiens), sequence (Q96GD4 whole entry): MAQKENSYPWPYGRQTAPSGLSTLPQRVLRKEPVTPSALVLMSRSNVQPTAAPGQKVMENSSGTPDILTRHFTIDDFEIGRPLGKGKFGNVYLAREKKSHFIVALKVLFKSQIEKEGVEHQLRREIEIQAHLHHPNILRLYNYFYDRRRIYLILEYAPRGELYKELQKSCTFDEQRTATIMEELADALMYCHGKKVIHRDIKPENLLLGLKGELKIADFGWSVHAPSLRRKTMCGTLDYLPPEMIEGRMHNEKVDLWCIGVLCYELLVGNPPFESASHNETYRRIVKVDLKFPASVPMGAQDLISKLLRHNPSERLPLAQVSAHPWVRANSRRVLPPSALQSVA

MDA-MB-231 [16] = experiment: Induction of apoptosis in human MDA-MB-231 cells assessed as live cells at 5 uM incubated for 24 hrs by Annexin V-FITC staining based flow cytometry (Rvb= 88.1%); type: functional
SJSA-1 = experiment: Antiproliferative activity against human SJSA-1 cells assessed as inhibition of cell proliferation incubated for 48 hrs by CCK-8 assay; type: functional, cell-based; conditions: SJSA-1, 48 h
Aurora kinase A [17] = molecular target: T1, Aurora kinase A; experiment: Inhibition of recombinant human Aurora A (1 to 403 residues) expressed in Escherichia coli using STK-substrate 2-biotin as substrate incubated for 40 mins in presence of 0.48 uM ATP by HTRF assay
MDA-MB-231 [18] = experiment: Inhibition of cell migration in human MDA-MB-231 cells at 1.25 uM incubated for 18 hrs by Scratch assay (Rvb= 37.2%); type: functional
[19] = Toxicity in BALB/c nude mouse xenografted with human MDA-MB-231 cells assessed as parenchymal injury in kidney at 15 mg/kg,ip every 2days for 20 days by Hematoxylin and Eosin staining based microscopy; type: organism-based; conditions: in vivo, 480 h, time 20 day
Aurora kinase A [20] = molecular target: T1, Aurora kinase A; experiment: Inhibition of recombinant human Aurora A (1 to 403 residues) expressed in Escherichia coli using STK-substrate 2-biotin as substrate incubated for 15 mins in presence of 24 uM ATP by HTRF assay
[21] = Toxicity in BALB/c nude mouse xenografted with human MDA-MB-231 cells assessed as parenchymal injury in heart at 15 mg/kg,ip every 2days for 20 days by Hematoxylin and Eosin staining based microscopy; type: organism-based; conditions: in vivo, 480 h, time 20 day
Aurora kinase A [22] = molecular target: T1, Aurora kinase A; experiment: Inhibition of recombinant human Aurora A (1 to 403 residues) expressed in Escherichia coli using STK-substrate 2-biotin as substrate incubated for 15 mins in presence of 2.4uM ATP by HTRF assay
Aurora kinase A [23] = molecular target: T1, Aurora kinase A; experiment: Inhibition of recombinant human Aurora A (1 to 403 residues) expressed in Escherichia coli using STK-substrate 2-biotin as substrate incubated for 40 mins in presence of 24 uM ATP by HTRF assay
[24] = Toxicity in BALB/c nude mouse xenografted with human MDA-MB-231 cells assessed as inflammatory cell infiltration in heart at 15 mg/kg,ip every 2days for 20 days by Hematoxylin and Eosin staining based microscopy; type: organism-based; conditions: in vivo, 480 h, time 20 day
MDA-MB-231 [25] = experiment: Antitumor activity against human MDA-MB-231 cells xenografted in BALB/c nude mouse assessed as tumor growth inhibition at 15 mg/kg,ip every 2days for 20 days; type: functional; conditions: MDA-MB-231, 480 h, time 20 day, read-out: TGI
A549 = experiment: Antiproliferative activity against human A549 cells assessed as inhibition of cell proliferation incubated for 48 hrs by CCK-8 assay; type: functional, cell-based; conditions: A549, 48 h

IC50 (Aurora kinase A [1]): 3.41 nM
IC50 (Aurora kinase A [2]): 5.19 nM
Activity [3]: Active
IC50 (Aurora kinase A [4]): 1.49 nM
IC50 (MDA-MB-231 [8]): 1540 nM
IC50 (Aurora kinase A [9]): 3.91 nM
inhibition [10]: Tde
Activity [12]: Active
inhibition [15]: inactive
IC50 (SJSA-1): 4270 nM
IC50 (Aurora kinase A [17]): 1.55 nM
IC50 (Aurora kinase A [20]): 5.24 nM
IC50 (Aurora kinase A [22]): 4.01 nM
IC50 (Aurora kinase A [23]): 8.34 nM
IC50 (A549): 3080 nM
Compound: C=CC(=O)Nc1ccc(-c2nc(Nc3cc(C)[nH]n3)c3ccc(N4CCN(C)CC4)cc3n2)cc1
Activity [5]: Non-Toxic
Activity [6]: Non-Toxic
Activity (MDA-MB-231 [7]): 17.7%
Activity (MDA-MB-231 [11]): 1.14%
Activity [13]: Non-Toxic
Activity (MDA-MB-231 [14]): 1.83%
Activity (MDA-MB-231 [16]): 8.59%
inhibition at 1.25 µM (MDA-MB-231 [18]): 3.6%
Activity [19]: Non-Toxic
Activity [21]: Non-Toxic
Activity [24]: Non-Toxic
inhibition in vivo at 15 mg/kg (MDA-MB-231 [25]): 32.3%

Source: ChEMBL document CHEMBL5370554, “Discovery of a first-in-class Aurora A covalent inhibitor for the treatment of triple negative breast cancer” (Eur J Med Chem, 2023)
